The test system of test [1] is BJ. Description: cytotoxicity toward Ras-transformed BJeLR fibroblasts, dose response, cell-based, alamar blue fluorescence, cherrypicked samples (AID 2631).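 Note: confirmatory dose-response assay in RAS-dependent BJ fibroblasts engineered with TERT, LT and ST, with cytotoxicity read by fluorescence.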 It counts as functional. Conditions: Homo sapiens.
Test [2] can be described thus: cytotoxicity toward DRD oncogenic fibroblasts, dose response, cell-based, non-viral oncogenic, luminescence (AID 1934). The format is functional. Conditions: Homo sapiens.
Test [3] concerns BJ. As to the kind of experiment: cytotoxicity toward BJ-TERT-LT-ST fibroblasts, dose response, cell-based, RAS-independent, luminescence (AID 1935).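 Note: BJ fibroblasts immortalized with TERT plus LT and ST oncogenes.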 The format is functional. Conditions: Homo sapiens.
Test [4] in a line: NIH-3T3 fibroblast cytotoxicity, dose response, cytotoxicity control, cell-based, fluorescence, Alamar Blue, secondary assay (AID 2327).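 Note: NIH-3T3 mouse fibroblasts cultured with fluconazole at 8 µg/mL.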 It counts as functional.
The subject of test [5] is BJ. As to the kind of experiment: cytotoxicity toward BJ-TERT fibroblasts, dose response, cell-based, RAS-independent, luminescence (AID 1933). The note with it: Homo sapiens. It counts as functional.
The nature of test [6]: C. albicans growth with fluconazole, confirmation, fluorescence, retest (AID 2467). It counts as functional, cell-based.
The test system of test [7] is BJ. As to the kind of experiment: cells. It counts as functional, cell-based. Conditions: Homo sapiens.
Test [8] in a line: growth suppression of PTEN-null colon cells, dose response, cell-based, HCT116 PTEN knockout (AID 1047).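 Note: HCT116 colon tumor cells with PTEN knocked out; cells exposed to compound for 60 hours before readout; potency for loss of cell viability measured by luminescence.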 It counts as functional.
The nature of test [9]: growth suppression of beta-catenin-knockout colon cells, dose response, cell-based, HCT116, human colon tumor (AID 1045).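 Note: HCT116 colon tumor cells with beta catenin knocked out; cells exposed to compound for 60 hours.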 It counts as functional.
Test [10] has as its target T1, Rac GTPase-activating protein 1 (Homo sapiens, UniProt Q9H0H5).
T1 sequence (Q9H0H5 whole entry): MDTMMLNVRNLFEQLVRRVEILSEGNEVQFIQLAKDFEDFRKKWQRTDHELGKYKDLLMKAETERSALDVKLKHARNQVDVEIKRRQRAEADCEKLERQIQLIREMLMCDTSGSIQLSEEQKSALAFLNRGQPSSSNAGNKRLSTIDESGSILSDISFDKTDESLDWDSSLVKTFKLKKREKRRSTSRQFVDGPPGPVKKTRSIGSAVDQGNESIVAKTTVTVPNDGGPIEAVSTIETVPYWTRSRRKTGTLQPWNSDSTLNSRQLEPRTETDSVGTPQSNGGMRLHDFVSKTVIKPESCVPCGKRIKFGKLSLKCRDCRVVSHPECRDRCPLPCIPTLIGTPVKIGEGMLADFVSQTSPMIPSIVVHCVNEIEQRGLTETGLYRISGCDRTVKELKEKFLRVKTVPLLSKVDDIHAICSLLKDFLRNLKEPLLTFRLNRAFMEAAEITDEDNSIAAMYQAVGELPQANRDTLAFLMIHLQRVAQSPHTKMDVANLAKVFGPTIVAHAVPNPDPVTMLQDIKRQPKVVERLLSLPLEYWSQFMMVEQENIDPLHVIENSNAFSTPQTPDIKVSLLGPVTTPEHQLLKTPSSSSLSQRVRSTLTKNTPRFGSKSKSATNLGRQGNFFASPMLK
Description: MgcRacGAP GTPase-activating activity inhibitors, confirmation, biochemical, ADP Hunter fluorescence, primary and confirmatory (AID 624330). It counts as functional.

The next test concerns HeLa. As to the kind of experiment: HeLa cell cytotoxicity, dose response, cytotoxicity control for MITF activator project, CellTiter-Glo luminescence, cherry-pick samples (AID 540259). Conditions: Homo sapiens. The format is functional, cell-based.
The target of test [11] is T2, Sentrin-specific protease 6 (Homo sapiens, UniProt Q9GZR1).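 Note: Luminescence-based dose-response confirmatory assay of SENP6 inhibition, following up an ultra-high-throughput screen.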
T2 sequence (Q9GZR1 whole entry): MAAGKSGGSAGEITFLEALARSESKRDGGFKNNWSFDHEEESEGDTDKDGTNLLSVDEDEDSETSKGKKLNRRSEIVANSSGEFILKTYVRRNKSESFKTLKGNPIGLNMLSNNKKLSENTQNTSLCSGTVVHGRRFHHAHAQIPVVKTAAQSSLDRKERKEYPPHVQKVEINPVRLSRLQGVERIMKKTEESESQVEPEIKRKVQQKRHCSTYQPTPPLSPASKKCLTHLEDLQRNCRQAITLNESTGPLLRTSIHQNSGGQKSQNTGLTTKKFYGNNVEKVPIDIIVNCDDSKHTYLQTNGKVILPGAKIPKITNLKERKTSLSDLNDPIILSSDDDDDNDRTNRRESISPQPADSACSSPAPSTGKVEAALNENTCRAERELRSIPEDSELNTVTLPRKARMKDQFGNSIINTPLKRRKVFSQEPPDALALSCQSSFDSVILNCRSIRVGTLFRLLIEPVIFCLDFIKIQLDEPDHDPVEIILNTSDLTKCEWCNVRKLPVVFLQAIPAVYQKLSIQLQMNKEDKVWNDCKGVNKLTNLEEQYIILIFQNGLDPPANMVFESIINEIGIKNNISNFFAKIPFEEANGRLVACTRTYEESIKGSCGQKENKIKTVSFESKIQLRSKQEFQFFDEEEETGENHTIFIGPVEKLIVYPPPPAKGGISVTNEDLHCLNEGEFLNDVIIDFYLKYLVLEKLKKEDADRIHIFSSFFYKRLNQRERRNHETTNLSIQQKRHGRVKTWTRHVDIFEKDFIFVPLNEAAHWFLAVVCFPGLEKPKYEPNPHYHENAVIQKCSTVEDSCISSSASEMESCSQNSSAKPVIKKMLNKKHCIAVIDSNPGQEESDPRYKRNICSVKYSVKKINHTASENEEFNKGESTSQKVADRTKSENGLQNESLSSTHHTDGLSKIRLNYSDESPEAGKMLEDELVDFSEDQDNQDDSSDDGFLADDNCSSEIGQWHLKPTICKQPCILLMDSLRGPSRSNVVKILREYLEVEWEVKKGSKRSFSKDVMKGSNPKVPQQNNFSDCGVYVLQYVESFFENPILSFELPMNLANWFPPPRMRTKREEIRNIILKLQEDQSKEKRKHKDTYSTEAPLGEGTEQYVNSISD
The format is functional.

Test [12] addresses T3, Sentrin-specific protease 8 (Homo sapiens, UniProt Q96LD8).
T3 sequence (Q96LD8 whole entry): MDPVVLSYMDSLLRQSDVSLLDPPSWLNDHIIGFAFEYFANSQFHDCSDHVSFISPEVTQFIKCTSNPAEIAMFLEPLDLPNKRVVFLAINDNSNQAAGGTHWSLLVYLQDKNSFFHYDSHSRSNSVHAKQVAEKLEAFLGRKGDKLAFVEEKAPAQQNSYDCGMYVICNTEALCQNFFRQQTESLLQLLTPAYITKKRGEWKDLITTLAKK
The format is functional.

For test [13], the target named is T4, Sentrin-specific protease 7 (Homo sapiens, UniProt Q9BQF6).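 Note: Luminescence-based dose-response confirmation of ultra-high-throughput screening hits, measuring inhibition of SENP7.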
T4 sequence (Q9BQF6 whole entry): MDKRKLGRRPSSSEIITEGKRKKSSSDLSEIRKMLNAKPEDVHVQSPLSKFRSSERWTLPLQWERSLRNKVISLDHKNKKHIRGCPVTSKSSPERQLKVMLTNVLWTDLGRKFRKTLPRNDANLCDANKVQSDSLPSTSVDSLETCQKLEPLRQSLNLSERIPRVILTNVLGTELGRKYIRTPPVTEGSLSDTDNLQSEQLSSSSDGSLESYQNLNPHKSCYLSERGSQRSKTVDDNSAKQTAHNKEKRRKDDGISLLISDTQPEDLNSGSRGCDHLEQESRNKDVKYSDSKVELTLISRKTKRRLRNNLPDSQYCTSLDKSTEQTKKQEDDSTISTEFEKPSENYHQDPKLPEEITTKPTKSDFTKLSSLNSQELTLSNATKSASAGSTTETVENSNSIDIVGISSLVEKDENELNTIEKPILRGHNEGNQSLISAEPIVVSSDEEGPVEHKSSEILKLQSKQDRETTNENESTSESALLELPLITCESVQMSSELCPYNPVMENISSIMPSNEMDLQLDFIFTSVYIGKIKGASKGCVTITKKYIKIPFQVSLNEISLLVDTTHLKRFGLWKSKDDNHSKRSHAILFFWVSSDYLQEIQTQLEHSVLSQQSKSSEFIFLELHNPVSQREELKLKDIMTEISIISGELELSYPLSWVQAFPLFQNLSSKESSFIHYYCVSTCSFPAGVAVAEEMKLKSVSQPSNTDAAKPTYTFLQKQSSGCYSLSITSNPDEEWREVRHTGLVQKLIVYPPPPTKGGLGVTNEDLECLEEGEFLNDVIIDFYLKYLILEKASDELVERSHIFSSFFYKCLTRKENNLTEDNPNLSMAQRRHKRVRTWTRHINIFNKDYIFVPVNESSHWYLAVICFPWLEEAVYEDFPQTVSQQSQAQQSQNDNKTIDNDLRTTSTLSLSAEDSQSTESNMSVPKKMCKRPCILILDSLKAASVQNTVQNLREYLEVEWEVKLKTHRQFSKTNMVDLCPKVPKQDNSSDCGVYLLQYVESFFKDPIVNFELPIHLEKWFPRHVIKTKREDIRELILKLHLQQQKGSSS
It counts as functional.

In the next test the target is T5, Caspase-3 (Homo sapiens, UniProt P42574).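 Note: Dose-response selectivity test against caspase-3 for candidate inhibitors of sentrin-specific proteases (SENPs).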
T5 sequence (P42574 whole entry): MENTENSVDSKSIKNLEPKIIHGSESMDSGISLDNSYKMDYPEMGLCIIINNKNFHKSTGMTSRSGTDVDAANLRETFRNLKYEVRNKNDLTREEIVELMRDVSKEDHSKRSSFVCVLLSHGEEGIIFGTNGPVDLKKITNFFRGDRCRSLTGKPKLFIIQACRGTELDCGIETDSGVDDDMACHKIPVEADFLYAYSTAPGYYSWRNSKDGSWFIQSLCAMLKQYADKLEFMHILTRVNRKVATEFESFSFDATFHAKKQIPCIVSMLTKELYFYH
It counts as functional.

Another test has as its system HEK293. Description: inhibitors of LMP1-driven NF-kB reporter, dose response, cell-based, HEK293, luciferase, cherry-pick (AID 588343). The note with it: Homo sapiens. It counts as functional.

Active and inactive are the calls of the source.

Take `O=c1c2ccccc2nc(/C=C/c2ccc([N+](=O)[O-])o2)n1CCCO`: the EC50 in the test on BJ [1] was 3.07 µM (active); in test [2], 5.06 µM (inconclusive); with BJ [3] it was 3.96 µM (active); in [4], 7.14 µM (inconclusive); with BJ [5], 6.12 µM (inconclusive); in [6], 503 nM (active). In addition, the concentration giving a half-maximal response (EC50) in the test with BJ [7] is 7.21 µM (inconclusive); in test [8] it was < 59 nM (active); in test [9], < 59 nM (active).

Take `CCN(CC)c1ccc(Nc2nc(-c3cccnc3)cs2)cc1`: the IC50 is 185 µM (active) in test [10]; 16.9 µM (active) in test [11]; 26.7 µM (active) in [12]; 4.32 µM (active) in test [13]; 21.5 µM (active) at Caspase-3. Moreover, in the test with HeLa, the AC50 is 77 µM (active).

For the compound `COc1ccc(C=NNc2nc3ccccc3s2)cc1`, the half-maximal activity concentration (AC50) with HEK293 is 2.96 µM (active).

Values taken from ChEMBL document CHEMBL1201862, “PubChem BioAssay data set” (2004).
